# Results: US11300570B2, “Therapeutic and diagnostic methods for cancer” (Genentech, Inc., priority 2016, dated 2022)
# How the values were obtained:
# [1] = system: locally advanced or metastatic NSCLC (PD-L1-unselected patients); assay: POPLAR Phase II randomized trial, atezolizumab vs docetaxel, in 2L+ PD-L1-unselected NSCLC, efficacy by tTMB; assay type: in vivo, human
# Excerpt: (§1) Patients were eligible for enrollment in the POPLAR study if they had locally advanced or metastatic (e.g., stage IIIB, stage IV, or recurrent) NSCLC; disease progression during or following treatment with a prior platinum-containing regimen for locally advanced, unresectable/inoperable, or metastatic NSCLC, or disease recurrence within 6 months of treatment with a platinum-based adjuvant/neoadjuvant regimen; measurable disease, as defined by RECIST v1.1; and an ECOG performance status of 0 or 1. Participants were randomized to receive either atezolizumab at a dose of 1200 mg intravenously every three weeks or docetaxel 75 mg per meter square (mg/m^2) intravenously every three weeks. Treatment with atezolizumab could be continued as long as participants were experiencing clinical benefit, i.e., in the absence of unacceptable toxicity or symptomatic deterioration attributed to disease progression. Pre-treatment tumor samples from patients in the Phase III OAK trial (Clinical Trial ID No.: NCT02008227) were also evaluated for tTMB. Patients were eligible for enrollment in the OAK study if they had locally advanced or metastatic (e.g., stage IIIB, stage IV, or recurrent) NSCLC; disease progression during or following treatment with a prior platinum-containing regimen for locally advanced, unresectable/inoperable, or metastatic NSCLC, or disease recurrence within 6 months of treatment with a platinum-based adjuvant/neoadjuvant regimen; measurable disease, as defined by RECIST v1.1; and an ECOG performance status of 0 or 1. Participants were randomized to receive either atezolizumab at a dose of 1200 mg intravenously every three weeks or docetaxel 75 mg per square meter (mg/m^2) intravenously every three weeks. Treatment with atezolizumab could be continued as long as participants were experiencing clinical benefit, i.e., in the absence of unacceptable toxicity or symptomatic deterioration attributed to disease progression.
# Data from the single-arm, PD-L1-selected trials BIRCH and FIR were combined and analyzed to examine the association between tTMB and clinical outcomes among PD-L1-selected patients. Data from the randomized, PD-L1-unselected trial, POPLAR, were analyzed separately and treatment effects between the atezolizumab- and docetaxel-treatment arms were compared.
# To identify somatic mutations, tumor samples (e.g., archival tumor samples) were processed as described in Frampton et al. Nat. Biotechnol. 31:1023-31, 2013. Sequencing libraries were constructed to sequence and analyze samples. In addition to standard mutation processing, a mutation load estimation algorithm was applied that, based on the number of somatic mutations and/or rearrangements detected in Table 1 or Table 2, respectively, extrapolates to the exome or the genome as a whole. For purposes of mutation load estimation, all coding short variant alterations, base substitutions, and indels detected in the genes listed in Table 1 and Table 2 were counted. Further, all coding alterations (base substitutions and indels), including synonymous alterations, with the exception of known oncogenic driver mutations, in the genes listed in Table 1 and Table 2 were counted. However, numerous classes of detected alterations were not counted: non-coding alterations; alterations with known (occurring as known somatic alterations in the COSMIC database (Forbes et al. (2014) Nucl. Acids Res. 43:D805-11) and likely (truncations in tumor suppressor genes) functional status; known germline alterations in the dbSNP database (Sherry et al. (2001) Nucleic Acids Res. 29(1):308-11); germline alterations occurring with two or more counts in the ExAC database (Exome Aggregation Consortium (ExAC), Cambridge, Mass.); alterations that are predicted to be germline in the specimen being assessed; and alterations that are predicted to be germline in a cohort of >60,000 clinical specimens. […]
# [2] = system: locally advanced or metastatic NSCLC; assay: OAK Phase III randomized trial, atezolizumab vs docetaxel, in 2L+ NSCLC, efficacy by tTMB; assay type: in vivo, human; conditions: 2L+ OAK
# Excerpt: as §1
# To identify somatic mutations, tumor samples (e.g., archival tumor samples) were processed as described in Frampton et al. Nat. Biotechnol. 31:1023-31, 2013. Sequencing libraries were constructed to sequence and analyze samples. In addition to standard mutation processing, a mutation load estimation algorithm was applied that, based on the number of somatic mutations and/or rearrangements detected in Table 1 or Table 2, respectively, extrapolates to the exome or the genome as a whole. For purposes of mutation load estimation, all coding short variant alterations, base substitutions, and indels detected in the genes listed in Table 1 and Table 2 were counted. Further, all coding alterations (base substitutions and indels), including synonymous alterations, with the exception of known oncogenic driver mutations, in the genes listed in Table 1 and Table 2 were counted. However, numerous classes of detected alterations were not counted: non-coding alterations; alterations with known (occurring as known somatic alterations in the COSMIC database (Forbes et al. (2014) Nucl. Acids Res. 43:D805-11) and likely (truncations in tumor suppressor genes) functional status; known germline alterations in the dbSNP database (Sherry et al. (2001) Nucleic Acids Res. 29(1):308-11); germline alterations occurring with two or more counts in the ExAC database (Exome Aggregation Consortium (ExAC), Cambridge, Mass.); alterations that are predicted to be germline in the specimen being assessed; and alterations that are predicted to be germline in a cohort of >60,000 clinical specimens. Finally, to calculate the mutation load per megabase, the total number of mutations counted was divided by the coding region target territory of the test, which was 1.110 megabases (Mb) for the current version of the test. The average median coverage value for all samples was 490.
# The BEP was defined as patients with at least one tTMB measurement from a baseline tumor sample. […]
# [3] = BEP (evaluable for TMB) (n = 174 atezolizumab, 186 docetaxel)
# [4] = tTMB score <9 mut/Mb (n = 91 atezolizumab, 87 docetaxel)
# [5] = tTMB score <16 mut/Mb (n = 135 atezolizumab, 136 docetaxel)
# [6] = tTMB score ≥9 mut/Mb (n = 83 atezolizumab, 99 docetaxel)
# [7] = tTMB score ≥16 mut/Mb (n = 39 atezolizumab, 50 docetaxel)
smiles,measurement,setting,value
CC(=O)O[C@@]12CO[C@@H]1C[C@H](O)[C@@]1(C)C(=O)[C@H](O)C3=C(C)[C@@H](OC(=O)[C@H](O)[C@@H](NC(=O)OC(C)(C)C)c4ccccc4)C[C@@](O)([C@@H](OC(=O)c4ccccc4)[C@H]21)C3(C)C [docetaxel],ORR (confirmed per RECIST v1.1) with increasing tTMB,"[1]; POPLAR, per treatment arm",did not experience improvement in ORR
same,ORR,"[1]; POPLAR, BEP (n = 54 atezolizumab vs 38 docetaxel)",15%
same,ORR,"[1]; POPLAR, ITT (n = 144 atezolizumab vs 143 docetaxel)",15% vs 15%
same,ORR,"[1]; POPLAR, tTMB quantile ≥25%",10%
same,ORR,"[1]; POPLAR, tTMB quantile ≥50% (median)",4%
same,ORR,"[1]; POPLAR, tTMB quantile ≥75%",8%
same,association of tissue TMB with efficacy,"[1]; docetaxel arm, 2L+ NSCLC, randomized setting",not associated with the efficacy
same,Median OS,[2]; [3],9.8 months
same,Median PFS,[2]; [3],3.81 months
same,Median OS,[2]; ITT (n = 425 per arm),9.6 months
same,Median PFS,[2]; ITT (n = 425 per arm),4.0 months
same,Median OS,[2]; [4],10.8 months
same,Median PFS,[2]; [4],4.1 months
same,Median OS,[2]; [5],10.1 months
same,Median PFS,[2]; [5],4.0 months
same,Median OS,[2]; [6],9.7 months
same,Median PFS,[2]; [6],3.6 months
same,Median OS,[2]; [7],9.7 months
same,Median PFS,[2]; [7],3.5 months
